Experimental data as given in article PMC6695355, “Alanine Scanning Studies of the Antimicrobial Peptide Aurein 1.2” (Probiotics and Antimicrobial Proteins, 2018).
Converted amounts (≈) assume the structure as drawn. Where a SMILES comes first, the peptide text is derived from it.

Experiments:
[1] = tested on: P. aeruginosa ATCC 9027 biofilm formation; format: cell-based, Pseudomonas aeruginosa; settings: ATCC 9027, 24 h
Procedure: (§1) The minimum inhibitory concentrations (MICs) of test compounds were assessed by broth microdilution method on 96-well plates, according to the guidelines of Clinical and Laboratory Standards Institute (CLSI). For this purpose, reference strains of bacteria: S. aureus ATCC 25923, E. faecalis PCM 2673, E. coli ATCC 25922, and P. aeruginosa ATCC 9027; and fungus: C. albicans ATCC 10231 were used (The Polish Collection of Microorganism, Polish Academy of Sciences, Wrocław, Poland). Bacteria at initial inoculums of 0.5 × 10^5 CFU/mL in Mueller Hinton Broth (MHB), and fungi at initial inoculums of 2 × 10^3 CFU/mL in RPMI-1640, were exposed to the compounds over the concentration range of 1–512 μg/mL. The polystyrene plates were incubated at 37 °C for 18 h with bacteria and for 24 h with C. albicans. The MIC was taken as the lowest concentration at which a noticeable growth of microorganisms was inhibited. Minimum biofilm eradication concentrations (MBECs) were determined using a previously described protocol. For this purpose, 96-well polystyrene flat-bottom plates and a resazurin (7-hydroxy-3H-phenoxazin-3-one 10-oxide) were used. In this assay, a specific feature of resazurin is utilized, which upon the contact with living cells is metabolized and reduced from the basic blue form to pink resorufin. Briefly, 24-h cultures of microorganisms were diluted 1,000-fold and 100 μL of that suspension was added into the test plates. After 24 h of incubation at 37 °C, the wells of the plates were rinsed three times with phosphate buffer saline (PBS) to remove non-adherent cells. Subsequently, 100 μL of test compounds in concentration range (diluted in appropriate media) were added to each well. After 24 h of incubation at 37 °C, 20 μL of the resazurin (4 mg/mL) was added. The MBEC was read after 1 h. Additionally, anti-adhesive properties of the compounds were also analyzed. The assay was conducted on 96-well polystyrene flat-bottom plates. The preparation of inoculums was followed by a 500-fold dilution of 24-h cultures of microorganisms. Briefly, to evaluate the effect of the peptides in preventing biofilm formation, 50 μL of compounds in concentration range, diluted in appropriate medium, were prepared. Subsequently, the 50 μL of the bacterial/fungal inoculums were added to reach the same microbial density as that in MBEC assay. After 24 h of incubation at 37 °C, the wells were rinsed three times with PBS and the fresh media with resazurin (0.6 mg/mL) were added. Then, after 1 h of incubation, the minimum biofilm inhibitory concentrations (MBIC) were read. MBECs as well as MBICs were determined as the lowest concentration at which the reduction of resazurin was lower or equal (10% ± 0.5%) as compared to positive (100%) and negative (0%) controls. All experiments were performed in triplicate.

P. aeruginosa ATCC 9027 = format: cell-based, Pseudomonas aeruginosa; settings: ATCC 9027, 18 h
Procedure: as §1

[2] = tested on: P. aeruginosa ATCC 9027 biofilm; format: cell-based, Pseudomonas aeruginosa; settings: ATCC 9027, 24 h
Procedure: as §1

E. coli ATCC 25922 = format: cell-based, Escherichia coli; settings: ATCC 25922, 18 h
Procedure: as §1

[3] = tested on: E. coli ATCC 25922 biofilm; format: cell-based, Escherichia coli; settings: ATCC 25922, 24 h
Procedure: as §1

[4] = tested on: E. coli ATCC 25922 biofilm formation; format: cell-based, Escherichia coli; settings: ATCC 25922, 24 h
Procedure: as §1

[5] = tested on: human red blood cells (RBCs); assay: Hemolysis assay; format: cell-based; settings: red cells of human, 1 h
Procedure: The hemolytic activity of the peptides was determined using fresh human red blood cells (RBCs) collected from a healthy human donor according to the procedure described in the literature. Fresh RBCs with EDTA as anticoagulant were rinsed three times with a PBS by centrifugation at 800×g for 10 min and resuspension in PBS. Serial dilution of the peptides in PBS (1–256 μg/mL) on 96-well polystyrene plates was prepared and the stock solution of RBCs was added up to a final volume of 100 μL with a 4% concentration of erythrocytes (v/v). The control wells for 0 and 100% hemolysis contained of RBCs suspended in PBS and 1% of Triton-X 100, respectively. Subsequently, the plates were incubated for 1 h at 37 °C and then centrifuged at 800×g for 10 min at 4 °C (Sorvall ST 16R Centrifuge, Thermo Scientific). After centrifugation, the supernatant was carefully […] to new microtiter plates and the release of hemoglobin was measured at 540 nm (Multiskan™ GO Microplate Spectrophotometer, Thermo Scientific). All experiments were conducted in triplicate.

C. albicans ATCC 10231 = format: cell-based, Candida albicans; settings: ATCC 10231, 24 h
Procedure: as §1

[6] = tested on: C. albicans ATCC 10231 biofilm; format: cell-based, Candida albicans; settings: ATCC 10231, 24 h
Procedure: as §1

[7] = tested on: C. albicans ATCC 10231 biofilm formation; format: cell-based, Candida albicans; settings: ATCC 10231, 24 h
Procedure: as §1

[8] = tested on: E. faecalis PCM 2673 biofilm formation; format: cell-based, Enterococcus faecalis; settings: 24 h
Procedure: as §1

[9] = tested on: E. faecalis PCM 2673 biofilm; format: cell-based, Enterococcus faecalis; settings: 24 h
Procedure: as §1

E. faecalis PCM 2673 = format: cell-based, Enterococcus faecalis; settings: PCM 2673, 18 h
Procedure: as §1

in vitro = in vitro ADME; settings: bovine, serum
Procedure: To assess serum stability, the peptides (0.5 mg) were dissolved in 4 mL of 25% (v/v) fetal bovine serum (FBS) in PBS and incubated at 37 °C. The aliquots of 100 μL of the test samples were transferred to 96-well polystyrene plates in triplicate for each time point. Samples were quenched at zero time (t0) and after 6 h of incubation at 37 °C by addition of 100 μL of ice-cold acetonitrile and stored at 4 °C for 10 min. Afterwards, the samples were centrifuged at 13,000×g for 20 min at 4 °C and diluted 1:1 with HPLC-grade water. All samples were analyzed using the Waters Alliance e2695 system with Waters Acquity QDa Detector (software–Empower®3). Analyses were conducted on an Agilent Zorbax SB-C18 RP-18 column (4.6 × 50 mm, 1.8-μm particle size, 80-Å pore size) using a linear 30–60% acetonitrile (B) gradient in deionized water (A) over 6 min at 25.0 ± 0.1 °C, at a flow rate of 0.5 mL/min and MS working in selected ion recording (SIR) mode (A—0.1% aqueous formic acid (FA) and B—0.1% FA in acetonitrile). The percentage of peptide remaining intact was calculated from peak areas of samples at t0 and after 6 h of incubation in serum (the % of remaining peptide = peak area after 6 h/peak area at t0). The mass-to-charge ratios selected for SIR mode were based on values obtained from full spectrum analysis of each peptide and are presented in Table 1.

[10] = tested on: S. aureus ATCC 25923 biofilm; format: cell-based, Staphylococcus aureus; settings: ATCC 25923, 24 h
Procedure: as §1

[11] = tested on: S. aureus ATCC 25923 biofilm formation; format: cell-based, Staphylococcus aureus; settings: ATCC 25923, 24 h
Procedure: as §1

S. aureus ATCC 25923 = format: cell-based, Staphylococcus aureus; settings: ATCC 25923, 18 h
Procedure: as §1

| SMILES | MBIC, P. aeruginosa ATCC 9027 [1] [µg/mL] | MIC, P. aeruginosa ATCC 9027 (P. aeruginosa ATCC 9027) [µg/mL] | MBEC, P. aeruginosa ATCC 9027 [2] [µg/mL] | MIC, E. coli ATCC 25922 (E. coli ATCC 25922) [µg/mL] | MBEC, E. coli ATCC 25922 [3] [µg/mL] | MBIC, E. coli ATCC 25922 [4] [µg/mL] | Percentage of hemolysis at 1 μg/mL [5] [%] | Percentage of hemolysis at 2 μg/mL [5] [%] | Percentage of hemolysis at 4 μg/mL [5] [%] | Percentage of hemolysis at 8 μg/mL [5] [%] | Percentage of hemolysis at 16 μg/mL [5] [%] | Percentage of hemolysis at 32 μg/mL [5] [%] | Percentage of hemolysis at 64 μg/mL [5] [%] | Percentage of hemolysis at 128 μg/mL [5] [%] | Percentage of hemolysis at 256 μg/mL [5] [%] | MIC, C. albicans ATCC 10231 (C. albicans ATCC 10231) [µg/mL] | MBEC, C. albicans ATCC 10231 [6] [µg/mL] | MBIC, C. albicans ATCC 10231 [7] [µg/mL] | MBIC, E. faecalis PCM 2673 [8] [µg/mL] | MBEC, E. faecalis PCM 2673 [9] [µg/mL] | further results |
| --- | --- | --- | --- | --- | --- | --- | --- | --- | --- | --- | --- | --- | --- | --- | --- | --- | --- | --- | --- | --- | --- |
| CC[C@H](C)[C@H](NC(=O)[C@H](CCCCN)NC(=O)[C@H](CCCCN)NC(=O)[C@@H](NC(=O)[C@@H](NC(=O)[C@H](CC(=O)O)NC(=O)[C@H](Cc1ccccc1)NC(=O)[C@H](C)NC(=O)CN)[C@@H](C)CC)[C@@H](C)CC)C(=O)N[C@@H](C)C(=O)N[C@@H](CCC(=O)O)C(=O)N[C@@H](CO)C(=O)N[C@@H](Cc1ccccc1)C(N)=O [Peptide L2A] (H-GAFDIIKKIAESF-NH2) | > 512 | 512 (≈ 356 µM) | > 512 | 256 (≈ 178 µM) | 512 | 512 | 0.3 | 0.6 | 0.4 | 0.2 | 0.0 | 0.0 | 0.0 | 0.0 | 0.0 | 256 (≈ 178 µM) | > 512 | 8 | > 512 | > 512 | MIC, E. faecalis PCM 2673 (E. faecalis PCM 2673): 512 µg/mL (≈ 356 µM); remaining at 6 h, 0.125 mg/mL (in vitro): 6%; MBEC, S. aureus ATCC 25923 [10]: > 512 µg/mL; MBIC, S. aureus ATCC 25923 [11]: > 512 µg/mL; MIC, S. aureus ATCC 25923 (S. aureus ATCC 25923): > 512 µg/mL |
| CC[C@H](C)[C@H](NC(=O)[C@H](CC(=O)O)NC(=O)[C@H](Cc1ccccc1)NC(=O)[C@H](CC(C)C)NC(=O)CN)C(=O)N[C@H](C(=O)N[C@@H](CCCCN)C(=O)N[C@@H](CCCCN)C(=O)N[C@@H](C)C(=O)N[C@@H](C)C(=O)N[C@@H](CCC(=O)O)C(=O)N[C@@H](CO)C(=O)N[C@@H](Cc1ccccc1)C(N)=O)[C@@H](C)CC [Peptide I9A] (H-GLFDIIKKAAESF-NH2) | > 512 | > 512 | > 512 | 512 (≈ 356 µM) | > 512 | >512 | 0.6 | 0.6 | 0.3 | 0.1 | 0.0 | 0.0 | 0.0 | 0.0 | 0.0 | 512 (≈ 356 µM) | > 512 | 16 | > 512 | > 512 | MIC, E. faecalis PCM 2673 (E. faecalis PCM 2673): 128 µg/mL (≈ 89 µM); remaining at 6 h, 0.125 mg/mL (in vitro): 6%; MBEC, S. aureus ATCC 25923 [10]: > 512 µg/mL; MBIC, S. aureus ATCC 25923 [11]: > 512 µg/mL; MIC, S. aureus ATCC 25923 (S. aureus ATCC 25923): > 512 µg/mL |
